According to patent US8624040B2, “Substituted hydroxamic acids and uses thereof” (Millennium Pharmaceuticals, Inc., priority 2009, dated 2014):

Target: T1, purified human HDAC6 (Homo sapiens, UniProt Q9UBN7)
T1 construct: purchased BPS Bioscience 5006
T1 sequence (Q9UBN7 1-1215): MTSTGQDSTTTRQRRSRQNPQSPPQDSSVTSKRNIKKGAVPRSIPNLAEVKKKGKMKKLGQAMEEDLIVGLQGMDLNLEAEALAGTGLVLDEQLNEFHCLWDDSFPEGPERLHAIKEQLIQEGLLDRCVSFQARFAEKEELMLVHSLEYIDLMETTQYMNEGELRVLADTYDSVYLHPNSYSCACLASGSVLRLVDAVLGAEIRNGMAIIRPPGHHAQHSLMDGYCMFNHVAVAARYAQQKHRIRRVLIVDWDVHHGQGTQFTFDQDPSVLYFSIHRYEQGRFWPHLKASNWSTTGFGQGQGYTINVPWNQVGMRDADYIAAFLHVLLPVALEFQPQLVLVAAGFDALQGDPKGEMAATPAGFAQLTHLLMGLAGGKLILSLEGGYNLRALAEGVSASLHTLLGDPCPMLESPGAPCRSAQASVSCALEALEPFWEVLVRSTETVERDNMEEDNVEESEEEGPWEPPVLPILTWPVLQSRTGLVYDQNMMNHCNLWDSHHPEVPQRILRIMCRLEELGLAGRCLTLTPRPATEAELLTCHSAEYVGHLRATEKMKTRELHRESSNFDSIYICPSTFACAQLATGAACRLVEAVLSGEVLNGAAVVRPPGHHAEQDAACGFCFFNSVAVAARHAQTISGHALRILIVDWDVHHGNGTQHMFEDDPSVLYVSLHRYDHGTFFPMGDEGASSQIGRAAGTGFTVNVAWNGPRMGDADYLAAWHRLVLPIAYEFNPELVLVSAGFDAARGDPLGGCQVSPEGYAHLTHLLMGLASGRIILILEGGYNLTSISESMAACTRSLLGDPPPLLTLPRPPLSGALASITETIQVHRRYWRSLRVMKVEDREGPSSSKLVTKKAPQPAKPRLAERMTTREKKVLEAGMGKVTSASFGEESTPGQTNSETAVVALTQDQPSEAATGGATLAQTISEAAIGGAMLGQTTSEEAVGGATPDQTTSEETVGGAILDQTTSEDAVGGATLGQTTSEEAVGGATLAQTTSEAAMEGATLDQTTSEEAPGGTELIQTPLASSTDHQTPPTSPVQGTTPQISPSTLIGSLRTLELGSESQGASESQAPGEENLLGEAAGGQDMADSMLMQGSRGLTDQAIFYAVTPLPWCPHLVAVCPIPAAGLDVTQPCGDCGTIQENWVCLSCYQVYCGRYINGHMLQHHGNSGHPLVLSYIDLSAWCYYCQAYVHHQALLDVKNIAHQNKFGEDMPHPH
Experiment: HDAC6 Enzyme Assay
Type: biochemical
Conditions: enzyme inhibition, substrate Ac-Arg-Gly-Lys(Ac)-AMC, 1 hour at 30° C.
Description: To measure the inhibition of HDAC6 activity, purified human HDAC6 (BPS Bioscience; Cat. No. 5006) is incubated with substrate Ac-Arg-Gly-Lys(Ac)-AMC peptide (Bachem Biosciences; Cat. No. I-1925) for 1 hour at 30° C. in the presence of test compounds or vehicle DMSO control. The reaction is stopped with the HDAC inhibitor trichostatin A (Sigma; Cat. No. T8552) and the amount of Arg-Gly-Lys-AMC generated is quantitated by digestion with trypsin (Sigma; Cat. No. T1426) and subsequent measurement of the amount of AMC released using a fluorescent plate reader (Pherastar; BMG Technologies) set at Ex 340 nm and Em 460 nm. Concentration response curves are generated by calculating the fluorescence increase in test compound-treated samples relative to DMSO-treated controls, and enzyme inhibition (IC50) values are determined from those curves.

O=C(NO)c1cc2c(s1)CCN(C(=O)c1cccc3cccnc13)C2 [Compound 30, N-hydroxy-5-(quinolin-8-ylcarbonyl)-4,5,6,7-tetrahydrothieno[3,2-c]pyridine-2-carboxamide]
IC50: < 50 nM

O=C(NO)c1cc2c(s1)CCN(C(=O)C1CCCCC1)C2 [Compound 31, 5-(cyclohexanecarbonyl)-N-hydroxy-4,5,6,7-tetrahydrothieno[3,2-c]pyridine-2-carboxamide]
IC50: < 50 nM

COc1cc(OC)nc(-c2ccc(C(=O)N3CCc4sc(C(=O)NO)cc4C3)cc2)n1 [Compound 32, 5-(4-(4,6-dimethoxypyrimidin-2-yl)benzoyl)-N-hydroxy-4,5,6,7-tetrahydrothieno[3,2-c]pyridine-2-carboxamide]
IC50: < 50 nM

O=C(NO)c1cc2c(s1)CCN(C(=O)C13CC4CC(CC(C4)C1)C3)C2 [Compound 33, 5-(adamantan-1-ylcarbonyl)-N-hydroxy-4,5,6,7-tetrahydrothieno[3,2-c]pyridine-2-carboxamide]
IC50: < 50 nM

O=C(NO)c1cc2c(s1)CCN(S(=O)(=O)c1ccc(C(F)(F)F)cc1)C2 [Compound 34, N-hydroxy-5-{[4-(trifluoromethyl)phenyl]sulfonyl}-4,5,6,7-tetrahydrothieno[3,2-c]pyridine-2-carboxamide]
IC50: < 50 nM

O=C(NO)c1cc2c(s1)CN(C(=O)Nc1ccc(-c3ccccc3)s1)CC2 [Compound 40, N^2-hydroxy-N^6-(5-phenyl-2-thienyl)-4,7-dihydrothieno[2,3-c]pyridine-2,6(5H)-dicarboxamide]
IC50: < 50 nM

O=C(NO)c1cc2c(s1)CN(C(=O)c1ccco1)CC2 [Compound 42, 6-(furan-2-carbonyl)-N-hydroxy-4,5,6,7-tetrahydrothieno[2,3-c]pyridine-2-carboxamide]
IC50: < 50 nM

Cc1nc(C)c(CC(=O)N2CCc3cc(C(=O)NO)sc3C2)s1 [Compound 47, 6-[(2,4-dimethyl-1,3-thiazol-5-yl)acetyl]-N-hydroxy-4,5,6,7-tetrahydrothieno[2,3-c]pyridine-2-carboxamide]
IC50: 50 to 100 nM

Cc1ncc(C(=O)N2CCc3cc(C(=O)NO)sc3C2)c(-c2ccccc2)n1 [Compound 48, N-hydroxy-6-(2-methyl-4-phenylpyrimidine-5-carbonyl)-4,5,6,7-tetrahydrothieno[2,3-c]pyridine-2-carboxamide]
IC50: 50 to 100 nM

Cc1cc(C(=O)N2CCc3cc(C(=O)NO)sc3C2)ccc1F [Compound 51, 6-(4-fluoro-3-methylbenzoyl)-N-hydroxy-4,5,6,7-tetrahydrothieno[2,3-c]pyridine-2-carboxamide]
IC50: < 50 nM

O=C(NO)c1cc2c(s1)CN(C(=O)Cc1cc(F)cc(F)c1)CC2 [Compound 52, 6-(2-(3,5-difluorophenyl)acetyl)-N-hydroxy-4,5,6,7-tetrahydrothieno[2,3-c]pyridine-2-carboxamide]
IC50: 50 to 100 nM

O=C(NO)c1cc2c(s1)CN(C(=O)Nc1cccc(C(F)(F)F)c1)CC2 [Compound 54, N^2-hydroxy-N^6-[3-(trifluoromethyl)phenyl]-4,7-dihydrothieno[2,3-c]pyridine-2,6(5H)-dicarboxamide]
IC50: < 50 nM

NC(=O)CSc1ccsc1C(=O)N1CCc2cc(C(=O)NO)sc2C1 [Compound 56, 6-({3-[(2-amino-2-oxoethyl)sulfanyl]-2-thienyl}carlbonyl)-N-hydroxy-4,5,6,7-tetrahydrothieno[2,3-c]pyridine-2-carboxamide]
IC50: > 1000 nM

Cc1noc(C)c1CC(=O)N1CCc2cc(C(=O)NO)sc2C1 [Compound 62, 6-(2-(3,5-dimethylisoxazol-4-yl)acetyl)-N-hydroxy-4,5,6,7-tetrahydrothieno[2,3-c]pyridine-2-carboxamide]
IC50: 50 to 100 nM

CC(C)(C)c1ccc(C(=O)N2CCc3cc(C(=O)NO)sc3C2)cc1 [Compound 64, 6-(4-tert-butylbenzoyl)-N-hydroxy-4,5,6,7-tetrahydrothieno[2,3-c]pyridine-2-carboxamide]
IC50: < 50 nM

Cc1oc(-c2ccccc2)nc1CC(=O)N1CCc2cc(C(=O)NO)sc2C1 [Compound 65, N-hydroxy-6-[(5-methyl-2-phenyl-1,3-oxazol-4-yl)acetyl]-4,5,6,7-tetrahydrothieno[2,3-c]pyridine-2-carboxamide]
IC50: < 50 nM

Cc1oc(C(C)(C)C)cc1C(=O)N1CCc2cc(C(=O)NO)sc2C1 [Compound 67, 6-(5-tert-butyl-2-methyl-3-furoyl)-N-hydroxy-4,5,6,7-tetrahydrothieno[2,3-c]pyridine-2-carboxamide]
IC50: < 50 nM

Cc1nc(CC(=O)N2CCc3cc(C(=O)NO)sc3C2)cs1 [Compound 75, N-hydroxy-6-(2-(2-methylthiazol-4-yl)acetyl)-4,5,6,7-tetrahydrothieno[2,3-c]pyridine-2-carboxamide]
IC50: 50 to 100 nM

O=C(NO)c1cc2c(s1)CN(C(=O)NC1CCCCC1)CC2 [Compound 76, N^6-cyclohexyl-N^2-hydroxy-4,7-dihydrothieno[2,3-c]pyridine-2,6(5H)-dicarboxamide]
IC50: < 50 nM

Cc1cccc(NC(=O)N2CCc3cc(C(=O)NO)sc3C2)c1 [Compound 80, N^2-hydroxy-N^6-(3-methylphenyl)-4,7-dihydrothieno[2,3-c]pyridine-2,6(5H)-dicarboxamide]
IC50: < 50 nM

O=C(NO)c1cc2c(s1)CN(C(=O)c1cccc(O)n1)CC2 [Compound 81, N-hydroxy-6-[(6-hydroxypyridin-2-yl)carbonyl]-4,5,6,7-tetrahydrothieno[2,3-c]pyridine-2-carboxamide]
IC50: 50 to 100 nM

Cn1nc(C(C)(C)C)cc1C(=O)N1CCc2cc(C(=O)NO)sc2C1 [Compound 88, 6-[(3-tert-butyl-1-methyl-1H-pyrazol-5-yl)carbonyl]-N-hydroxy-4,5,6,7-tetrahydrothieno[2,3-c]pyridine-2-carboxamide]
IC50: < 50 nM

O=C(NO)c1cc2c(s1)CN(C(=O)CSc1cccc(C(F)(F)F)c1)CC2 [Compound 89, N-hydroxy-6-({[3-(trifluoromethyl)phenyl]sulfanyl}acetyl)-4,5,6,7-tetrahydrothieno[2,3-c]pyridine-2-carboxamide]
IC50: < 50 nM

Cc1ccoc1C(=O)N1CCc2cc(C(=O)NO)sc2C1 [Compound 94, N-hydroxy-6-(3-methyl-2-furoyl)-4,5,6,7-tetrahydrothieno[2,3-c]pyridine-2-carboxamide]
IC50: < 50 nM

O=C(NO)c1cc2c(s1)CN(C(=O)c1ccc3ncccc3c1)CC2 [Compound 95, N-hydroxy-6-(quinoline-6-carbonyl)-4,5,6,7-tetrahydrothieno[2,3-c]pyridine-2-carboxamide]
IC50: < 50 nM

Cc1ncsc1C(=O)N1CCc2cc(C(=O)NO)sc2C1 [Compound 98, N-hydroxy-6-[(4-methyl-1,3-thiazol-5-yl)carbonyl]-4,5,6,7-tetrahydrothieno[2,3-c]pyridine-2-carboxamide]
IC50: < 50 nM

O=C(NO)c1cc2c(s1)CN(C(=O)c1cccc3cccnc13)CC2 [Compound 99, N-hydroxy-6-(quinoline-8-carbonyl)-4,5,6,7-tetrahydrothieno[2,3-c]pyridine-2-carboxamide]
IC50: < 50 nM

COc1cc(OC)nc(C(=O)N2CCc3cc(C(=O)NO)sc3C2)n1 [Compound 100, 6-[(4,6-dimethoxypyrimidin-2-yl)carbonyl]-N-hydroxy-4,5,6,7-tetrahydrothieno[2,3-c]pyridine-2-carboxamide]
IC50: 50 to 100 nM

Cc1ccc(CNC(=O)N2CCc3cc(C(=O)NO)sc3C2)cc1 [Compound 103, N2-hydroxy-N-6-(4-methylbenzyl)-4,5-dihydrothieno[2,3-c]pyridine-2,6(5H)-dicarboxamide]
IC50: < 50 nM
